Ten compounds from article PMC12073785, “Design, Synthesis and Biological Evaluation of 3-Hydrazonoindolin-2-one Derivatives as Novel HIV-1 RNase H Inhibitors” (Molecules, 2025) can be followed below.

The subject of one series is HIV-1 (strain IIIB). The series is described as follows: Anti-HIV-1 (strain IIIB) activity in MT-4 cells, MTT assay. The series is classed as cell-based. As to conditions: for EC50: protection of MT-4 cells against HIV-induced cytopathogenicity by 50%; for SI, selectivity index: ratio CC50/EC50, MT-4 cells. How it is done:
(§1) The anti-HIV-1 (strain IIIB) activity evaluation in MT-4 cells was conducted using an optimized MTT assay. The cell lines were obtained from the laboratory (Prof. Erik De Clercq, Rega Institute for Medical Research, KU Leuven, Herestraat 49, Leuven, Belgium). Compounds were serially diluted (5-fold increments, starting from 10× concentration) and dispensed into 96-well plates (25 µL/well) via an automated Biomek 3000 workstation (Beckman Instruments, Fullerton, CA, USA). Parallel experimental groups included virus-infected (50 µL HIV inoculum, 100–300 TCID50) and mock-infected controls (50 µL culture medium). MT-4 cells were centrifuged (220× g, 5 min), resuspended to 6 × 10⁵ cells/mL, and seeded (50 µL/well). After a 5-day incubation, cell viability was quantified by measuring mitochondrial dehydrogenase-mediated MTT-to-formazan conversion using dual-wavelength spectrophotometry (540 nm primary, 690 nm reference). The 50% cytotoxic concentration (CC50) was calculated from triplicate median absorbance values, representing the compound concentration reducing mock-infected cell viability by 50%.

A further series deals with MT-4 cells. As to the kind of experiment: Cytotoxicity in mock-infected MT-4 cells, MTT assay. The series is classed as cell-based. The procedure:
as §1

Test in series [1]: as above
Format: cell-based. The note with it: human, mock-infected MT-4 cells; reduction of normal uninfected MT-4 cell viability by 50%. The procedure:
as §1

A further series deals with HIV-1 RT R448A. The series is described as follows: RNase H inhibition with HIV-1 RT R448A mutant versus RT wt. Format: biochemical. As to conditions: HIV-1 RT R448A versus RT wt. The text has this: Furthermore, to validate the docking binding prediction of the compounds in the active site of the RT, and the interaction with amino acid residue R448, which was predicted to stabilize the binding of the compounds through a hydrogen bond, we evaluated the activity of compounds 6t and 11a in parallel against the RT wt enzyme and the HIV-1 RT R448A mutant (Figure 6). […] The results confirmed the importance of residue R448 in the binding of inhibitors and validated the predicted binding site to the enzyme; indeed, the less pronounced effect of R448A mutation on 11a inhibitory activity might be explained with the additional hydrogen bound predicted to form between 11a and amino acid Q475 (Figure 6).

In series [2] the target is T1, HIV-1 RT-associated RNase H (Human immunodeficiency virus type 1 group M subtype B, UniProt P04585).
T1 construct: HIV-1 group M subtype B heterodimeric reverse transcriptase (RT) was expressed and purified; made in house; host or cells: Escherichia coli strain M15, p6HRT-Prot expression vector
The series is described as follows: HIV-1 RT-associated RNase H inhibition (fluorescent RNA/DNA hybrid). Format: biochemical. As to conditions: for IC50: HIV-1 RT wt, average of three independent determinations, read-out: IC50, concentration required to inhibit 50% of in vitro RNase H activity; for Fold increase in RNase H inhibitory potency compared to compound 6a: IC50 ratio versus 6a; for Fold increase in RNase H inhibitory potency compared to compound 6t: IC50 ratio versus 6t. The procedure: The tested compounds were initially dissolved in dimethyl sulfoxide (DMSO) at a concentration of 50 mM and subsequently serially diluted (ratio 1:3). The compounds were tested as previously described.
Briefly, a reaction mixture containing 50 mM Tris-HCl buffer pH 7.8, 6 mM MgCl2, 1 mM dithiothreitol (DTT), 80 mM KCl, 0.25 μM hybrid RNA/DNA. 25 μM of RNA/DNA hybrid 5′-GAUCUGAGCCUGGAGCU-Fluorescin-3′ (HPLC, dry, QC: Mass Check), 5′-Dabcyl-AGCTCCCAGGCTCAGATC-3′ (HPLC, dry, QC: Mass Check), and increasing concentrations of inhibitors was diluted in DMSO. The activity of the RNase H function associated with HIV-1 RT was quantified by measuring the linear portion of the dose–response curve. The reaction mixture was incubated at 37 °C for 10 min with a Victor Nivo 5 multilabel plate reader (model 1420-051, PerkinElmer, Waltham, MA, USA), and fluorescence signals were recorded at excitation/emission wavelengths of 490/528 nm. Based on the obtained fluorescence data, the inhibitory concentration 50 (IC50) of the target compounds was calculated by interpolation on a dose–response curve. Results are reported as average and standard deviation of at least two independent replicates in triplicate.

Series [3] concerns the target T1, HIV-1 RT-associated RNase H. As to the kind of experiment: Kinetic analysis of RNase H inhibition, competition with RNA/DNA substrate. The note with it: for Mode of inhibition: Michaelis Menten and Lineweaver-Burk plots; for Ki: competition with RNA substrate. Format: biochemical. The text has this:
Based on the docking binding predictions, compound 6t and compound 11a were chosen for further characterization. To study the interaction between the chemical compounds and the enzyme in complex with the substrate, we evaluated the competition of compounds 6a and 11a with the RNA substrate (Figure 5). […] Given the results obtained, it is hypothesized that the binding between the inhibitor and the RT protein may modulate the interaction between the enzyme and the RNA substrate, resulting in an increased apparent KM and decreased apparent Vmax when increasing the concentration of the inhibitor.
Kinetic analysis of the DNA-polymerase independent RNase H activity was performed as already reported. Briefly, a reaction mixture containing 50 mM Tris-HCl buffer pH 7.8, 6 mM MgCl2, 1 mM DTT, 80 mM KCl, and increasing concentrations of hybrid RNA/DNA 5′-GAUCUGAGCCUGGGAGCU-Fluorescin-3′/5′-Dabcyl-AGCTCCCAGGCTCAGATC-3′ was incubated at 37 °C for 10 min with a Victor Nivo 5 multilabel plate reader (model 1420-051, PerkinElmer, Waltham, MA, USA), and fluorescence signals were recorded at excitation/emission wavelengths of 490/528 nm. Results were represented according to Michaelis Menten and Lineaweaver–Burke plots.

Where [4] appears, read: Human immunodeficiency virus 1, IIIB, MT4.

For `O=C1Nc2ccc(Cl)cc2[C@@](C#CC2CC2)(C(F)(F)F)O1` [EFV, reference compound], it took 0.003 µM to reach a half-maximal effect with HIV-1 (strain IIIB) (EC50). In the series on MT-4 cells, this compound had a CC50 above 4.59 µM.
The compound `Cc1ccnc2c1NC(=O)c1cccnc1N2C1CC1` [NVP, reference compound] registered an EC50 in the series on HIV-1 (strain IIIB) of 0.19 µM. Also, in the series on MT-4 cells, the CC50 is above 15 µM.
In the series with HIV-1 (strain IIIB) (setting [4]), `O=C1Nc2cc(Cl)c(Cl)cc2C1=NNc1c[nH]c(=O)[nH]c1=O` [Compound 11a, 5-(2-(5,6-Dichloro-2-oxoindolin-3-ylidene)hydrazineyl)pyrimidine-2,4(1H,3H)-dione] gave an EC50 of 39 µM. Moreover, the “SI, selectivity index” value in the series on HIV-1 (strain IIIB) is given as 10. Also, it took 402 µM to reach half-maximal cytotoxicity in series [1] (CC50 at 5 days). The “Shift of the inhibition curve (loss of potency)” value in the series on HIV-1 RT R448A is “two-fold”. Besides, in series [2], the IC50 was determined as 1.9 ± 0.01 µM, the “Fold increase in RNase H inhibitory potency compared to compound 6a” value turned out to be 40 fold and the “Fold increase in RNase H inhibitory potency compared to compound 6t” value stood at 4 fold. Also, in series [3], the Mode of inhibition result is given as “mixed model inhibitor” and the affinity corresponds to a Ki of 0.55 µM. Also, in series [3] (inhibitor 1 μM), the “Vmax (apparent)” value is on record as 105.8. In addition, in series [3] (inhibitor 2 μM), the “Vmax (apparent)” value was 98.24. For the same compound, in series [3] (inhibitor 4 μM), the “Vmax (apparent)” value was 41.29.
On to `Cc1ccc2c(c1)C(=NNc1cc(=O)[nH]c(=O)[nH]1)C(=O)N2` [Compound 6e, 6-(2-(5-Methyl-2-oxoindolin-3-ylidene)hydrazineyl)pyrimidine-2,4(1H,3H)-dione], for which, in series [2], the IC50 was above 100 µM.
Regarding `O=C1Nc2cc(Cl)ccc2C1=NNc1cc(=O)[nH]c(=O)[nH]1` [Compound 6h, 6-(2-(6-Chloro-2-oxoindolin-3-ylidene)hydrazineyl)pyrimidine-2,4(1H,3H)-dione], the IC50 in series [2] is above 100 µM.
Regarding `O=C1Nc2cc(Cl)c(Cl)cc2C1=NNc1cc(=O)[nH]c(=O)[nH]1` [Compound 6t, 6-(2-(5,6-Dichloro-2-oxoindolin-3-ylidene)hydrazineyl)pyrimidine-2,4(1H,3H)-dione], in the series with HIV-1 (strain IIIB) (setting [4]), the EC50 worked out at 110 µM. Further, the “SI, selectivity index” value in the series on HIV-1 (strain IIIB) was determined as 3. Moreover, the CC50 at 5 days in series [1] amounted to 294 µM. The “Shift of the inhibition curve (loss of potency)” value in the series with HIV-1 RT R448A is “four-fold”. Also, in series [2], the IC50 came to 7.85 ± 0.55 µM and the “Fold increase in RNase H inhibitory potency compared to compound 6a” value is around 10 fold. Besides, in series [3], the Mode of inhibition entry was “mixed model inhibitor” and affinity was put at a Ki of 2.31 µM. Besides, the “Vmax (apparent)” value in series [3] (inhibitor 4 μM) was determined as 124.2. The “Vmax (apparent)” value in series [3] (inhibitor 12 μM) was determined as 104.6.
In the series with HIV-1 (strain IIIB) (setting [4]), `O=C1Nc2cc(Br)c(Br)cc2C1=NNc1c[nH]c(=O)[nH]c1=O` [Compound 11b, 5-(2-(5,6-Dibromo-2-oxoindolin-3-ylidene)hydrazineyl)pyrimidine-2,4(1H,3H)-dione] displayed an EC50 of 44.9 µM. For the same compound, the “SI, selectivity index” value in the series with HIV-1 (strain IIIB) is given as 8. In series [1], this compound yielded a CC50 at 5 days of 349 µM. For the same compound, in series [2], the IC50 amounted to 2.2 ± 0.2 µM, the “Fold increase in RNase H inhibitory potency compared to compound 6a” value stood at 40 fold and the “Fold increase in RNase H inhibitory potency compared to compound 6t” value is 4 fold.
As to `O=C1Nc2cc(Br)ccc2C1=NNc1cc(=O)[nH]c(=O)[nH]1` [Compound 6i, 6-(2-(6-Bromo-2-oxoindolin-3-ylidene)hydrazineyl)pyrimidine-2,4(1H,3H)-dione], the IC50 in series [2] amounted to 23.6 ± 1.11 µM.
For `COc1ccc2c(c1)NC(=O)C2=NNc1cc(=O)[nH]c(=O)[nH]1` [Compound 6q, 6-(2-(6-Methoxy-2-oxoindolin-3-ylidene)hydrazineyl)pyrimidine-2,4(1H,3H)-dione], the IC50 in series [2] was above 100 µM.
The same measure, in the same setting: the result for `O=C1Nc2c(cccc2C(F)(F)F)C1=NNc1cc(=O)[nH]c(=O)[nH]1` [Compound 6o, 6-(2-(2-Oxo-7-(trifluoromethyl)indolin-3-ylidene)hydrazineyl)pyrimidine-2,4(1H,3H)-dione] reads 24.1 ± 7.02 µM.
